One assay has as its system human SKMEL-28 melanoma. Description: MTT antiproliferative assay, SKMEL-28. The format is cell-based. The note with it: sextuplicates, read-out: GI50 in vitro values, SKMEL-28. As for the experimental part: (§1) Human mammary carcinoma MCF-7 (ATCC HTB22) cells were cultured in RPMI supplemented with 10% FBS. The U87 cells (ATCC HTB-14) were cultured in DMEM culture medium, while the A549 cells (DSMZ ACC107) were cultured in RPMI culture medium supplemented with 10% heat-inactivated FBS. The GBM Hs683 (ATCC HTB-138) cells were cultivated in DMEM supplemented with 10% FBS. The human uterine sarcoma MES-SA (ATCC CRL1966) and MES-SA/D×5 cells were cultured in RPMI-1640 medium supplemented with 10% FBS with MES SA/D×5 maintained in the presence of 500 nM Doxorubicin (Sigma). SKMEL-28 cells (ATCC HTB72) and U373 GBM cells (ECACC 08061901) were cultured in RPMI culture medium supplemented with 10% heat-inactivated FBS. Cell culture media were supplemented with 4 mM glutamine (Lonza code BE17-605E), 100 μg/mL gentamicin (Lonza code 17-5182), and penicillin-streptomycin (200 units/ml and 200 μg/ml) (Lonza code 17-602E). The MDA-MB-231 (ATCC HTB-26) epithelial mammary adenocarcinoma cells were cultured in Eagle's minimum essential medium (EMEM; Invitrogen) containing 5% fetal calf serum (FCS, Cambrex), 2 mM L-glutamine (Invitrogen), 0.06% HEPES (Invitrogen) and penicillin (50 IU/ml)/streptomycin (50 µg/ml; Invitrogen) at 37° C. in a humidified atmosphere of 5% CO2 in air. Transformed mouse NPCs were cultured in suspension under neurosphere conditions at 37° C. in a humidified atmosphere of […] and 5% CO2 in DMEM F12 (Invitrogen 11320-074) supplemented with 1×B27 supplement (Invitrogen 17504-044), 5% penicillin-streptomycin (Biochrom 10378-017), 10 ng/ml EGF (R&D systems 236-EG), 10 ng/ml FGF (PeproTech 100-18B).
(§2) Antiproliferative properties of the synthesized compounds were evaluated by the MTT assay. All compounds were dissolved in DMSO at a concentration of either 100 μM or 50 μM prior to cell treatment. The cells were trypsinized and seeded at various cell concentrations depending on the cell type. The cells were grown for 24 h to 72 h, treated with compounds at concentrations ranging from 0.001 to 100 μM and incubated for 48 or 72 h in 100 or 200 μL media depending on the cell line used. The number of experiments and replicates varied depending on the cell line. Cells treated with 0.1% DMSO were used as a negative control; 1 μM PAO was used as a positive control.
(§3) The synthesized C12-Wittig derivatives were evaluated for antiproliferative activities in a panel of cancer cell lines that included apoptosis-resistant human U373 glioblastoma (GBM) (Lefranc et al., 2013), human A549 non-small cell lung cancer (NSCLC) and human SKMEL-28 melanoma (Mathieu et al., 2009) as well as apoptosis-sensitive human Hs683 anaplastic oligodendroglioma (Lefranc et al., 2013) and human MCF-7 breast cancer (Frolova et al., 2013).

In assay [1] the test system is human A549 non-small cell lung cancer (NSCLC). Put plainly: MTT antiproliferative assay, A549. Type of assay: cell-based. To be noted: for GI50: 72 h treatment, MTT assay, sextuplicates, read-out: GI50 in vitro values, A549. As for the experimental part:
as §1, §2, §3
For orientation: Formazan colour is commonly taken as a measure of viable cells.

Assay [2] has as its target T1, vanilloid site of TRPV1 receptor from rats spinal cord membranes (Rattus norvegicus, UniProt O35433).
T1 construct: from tissue; host or cells: rat spinal cord membranes
Description: [3H]-resiniferatoxin binding assay. To be noted: 2 nM [3H]-RTX. As to the method:
To evaluate the possible affinity of different analogues to the vanilloid site of TRPV1, a [^3H]-resiniferatoxin ([^3H]-RTX) binding assay was performed as previously described (Galli et al. 2004 and Lee et al., 2006). Briefly, rats spinal cord were homogenized in buffer A (pH 7.4, 5 mM KCl, 5.8 mM NaCl, 2 mM MgCl2, 0.75 mM CaCl2, 137 mM sucrose, and 10 mM HEPES) and centrifuged for 10 minutes at 1000 g at 4° C. and the supernatant was further centrifuged for 30 min at 35,000 g at 4° C. The resulting pellets were than resuspended in buffer A and frozen until assayed. The binding reaction was performed in a final volume of 500 μL, containing buffer A (plus 0.25 mg/mL bovine serum albumin, BSA), membranes (0.5 mg/mL), and 2 nM [^3H]-RTX in the presence or absence of analogues of 1 (10 μM). For the measurement of the nonspecific binding, 100 μM nonradioactive RTX were included used. The reaction was started by incubating tubes at 37° C. during 60 minutes, and stopped by transferring the tubes to ice bath and adding 100 μg of bovine α1-acid glycoprotein (to reduce nonspecific binding). […] The pellet was used to quantify the scintillation counting. The specific binding was calculated as the difference of the total and nonspecific binding and the results were measured as % of specific binding.

Assay [3] has as its system MDA-MB-231 breast cancer cells expressing TRPV1. Put plainly: Intracellular Ca2+ measurements, MDA-MB-231. The format is cell-based, human. To be noted: 1 at 80 μM, 5 at 20 μM; Fura-2. As to the method: Human mammary carcinoma MCF-7 (ATCC HTB22) cells were cultured in RPMI supplemented with 10% FBS. The U87 cells (ATCC HTB-14) were cultured in DMEM culture medium, while the A549 cells (DSMZ ACC107) were cultured in RPMI culture medium supplemented with 10% heat-inactivated FBS. The GBM Hs683 (ATCC HTB-138) cells were cultivated in DMEM supplemented with 10% FBS. The human uterine sarcoma MES-SA (ATCC CRL1966) and MES-SA/D×5 cells were cultured in RPMI-1640 medium supplemented with 10% FBS with MES SA/D×5 maintained in the presence of 500 nM Doxorubicin (Sigma). SKMEL-28 cells (ATCC HTB72) and U373 GBM cells (ECACC 08061901) were cultured in RPMI culture medium supplemented with 10% heat-inactivated FBS. Cell culture media were supplemented with 4 mM glutamine (Lonza code BE17-605E), 100 μg/mL gentamicin (Lonza code 17-5182), and penicillin-streptomycin (200 units/ml and 200 μg/ml) (Lonza code 17-602E). […]
Intracellular Ca^2+ measurements. Cells were grown on glass coverslips for fluorescence imaging. The cytosolic calcium was measured using Fura-2-loaded cells. […] Fluorescence was excited at 350 and 380 nm alternately using a monochromator (Polychrome IV; TILL Photonics, Planegg, Germany), and captured by a Cool SNAP HQ camera (Princeton Instruments, France) after filtration through a long-pass filter (510 nm). […]

Assay [4] relates to U373 human glioma cell line. Description: Quantitative videomicroscopy, U373. Type of assay: cell-based. To be noted: at GI50 concentrations (Table 1). As to the method:
FIG. 8. In vitro videomicroscopic analysis of the anticancer effects of 1 and its C12-Wittig derivatives 5 and 13. The U373 human glioma cell line was treated with polygodial, 5 and 13 at their mean GI50 concentrations (Table 1) or left untreated. Videomicroscopy enabled taking pictures of the culture field every 4 minutes. The experiment was conducted once in triplicate. While the morphology of cells treated with 1 was fixed over time, 5 and 13 exerted cytostatic effects on U373 cells.
In an effort to gain insight into possible mechanisms associated with antiproliferative properties of 1 and the C12-Wittig derivatives, the morphological changes in cells treated with these compounds were studied with computer-assisted phase-contrast microscopy (Luchetti et al., 2012) (quantitative videomicroscopy).

Read-outs that look alike come from different tables or passages of the source.

As a reminder, the GI50 is the concentration that inhibits growth by half. The inhibition is the change of the read-out against control, counted positive when it falls.

T1 sequence (O35433 whole entry): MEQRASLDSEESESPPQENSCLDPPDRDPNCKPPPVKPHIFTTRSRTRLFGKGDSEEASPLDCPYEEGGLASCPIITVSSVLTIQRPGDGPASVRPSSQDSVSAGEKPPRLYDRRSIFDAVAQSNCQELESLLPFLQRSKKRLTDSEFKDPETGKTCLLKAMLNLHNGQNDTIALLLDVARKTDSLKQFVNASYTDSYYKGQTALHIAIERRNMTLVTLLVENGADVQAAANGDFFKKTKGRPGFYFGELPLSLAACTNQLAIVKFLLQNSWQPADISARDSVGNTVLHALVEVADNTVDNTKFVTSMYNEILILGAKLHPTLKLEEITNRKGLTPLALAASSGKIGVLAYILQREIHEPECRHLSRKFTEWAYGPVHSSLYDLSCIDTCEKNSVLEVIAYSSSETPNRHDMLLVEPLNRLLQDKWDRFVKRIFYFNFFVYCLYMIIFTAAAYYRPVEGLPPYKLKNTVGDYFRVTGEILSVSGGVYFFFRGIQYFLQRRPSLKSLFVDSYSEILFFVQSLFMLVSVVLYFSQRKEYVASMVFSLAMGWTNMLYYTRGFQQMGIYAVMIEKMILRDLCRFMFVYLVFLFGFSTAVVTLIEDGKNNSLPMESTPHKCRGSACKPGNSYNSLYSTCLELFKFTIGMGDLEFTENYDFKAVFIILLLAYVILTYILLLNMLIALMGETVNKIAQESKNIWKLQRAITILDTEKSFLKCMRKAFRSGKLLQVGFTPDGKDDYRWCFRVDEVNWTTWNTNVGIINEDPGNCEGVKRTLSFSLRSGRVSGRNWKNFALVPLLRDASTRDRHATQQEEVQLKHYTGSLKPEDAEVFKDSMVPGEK

Regarding `CC1(C)CCC[C@]2(C)[C@@H](C=O)C(C=O)=CC[C@@H]12` [Compound 1, Polygodial], the GI50 was determined as 65 µM with human SKMEL-28 melanoma (Homo sapiens, SK-MEL-28, 72 h treatment) and 90 µM in assay [1] (Homo sapiens, A549). The inhibition at 10 µM in assay [2] (read-out: inhibition of specific binding of [3H]-resiniferatoxin (RTX)) worked out at 76%. In assay [3], the “[Ca2+]i response” value was “transient and synchronous [Ca^2+]i increase”. Also, in assay [4], the “morphological effect by videomicroscopy” value is “strong fixative effects”.

As to `COC(=O)/C=C/C1=CC[C@H]2C(C)(C)CCC[C@]2(C)[C@H]1C=O` [Compound 5], the GI50 in the assay with human SKMEL-28 melanoma (72 h treatment) stood at 27 µM; in assay [1], 21 µM. The “effect on proliferation/viability of all cells, A549” value in assay [1] (apoptosis-resistant A549 NSCLC, concentrations up to 100 μM) is “growth inhibitory properties against most of the cells”. Besides, the “inhibition of specific binding of [3H]-resiniferatoxin (RTX)” value in assay [2] (10 μM) is on record as “failed to show any activity”. For the same molecule, in assay [3], the “[Ca2+]i response” value is “sustained and asynchronous [Ca^2+] increases”. In assay [4], the “morphological effect by videomicroscopy” value was “inhibited cancer cell proliferation without inducing cell death”.

The values are drawn from US20180237362A1, “NOVEL POLYGODIAL ANALOGS FOR THE TREATMENT OF CANCER AND OTHER PROLIFERATIVE DISEASES” (THE BOARD OF REGENTS OF THE UNIVERSITY OF TAXAS SYSTEM, priority 2015, published 2018).
